What was measured:
Type in all cases: cell-based
TLR1/2 = target: T1, TLR1/2 (Mus musculus, UniProt Q9EPQ1+Q9QUN7); experiment: TNF-a release from primary mouse macrophages exposed to PAM3; conditions: primary mouse macrophages exposed to PAM3, FIG. 7
T1 construct: endogenous in cells; host or cells: primary mouse macrophages
From the text: (§1) The top graph presents TNF-a release from primary mouse macrophages exposed to LPS treated with either peptide SEQ ID No. 9 or a control peptide while the bottom graph presents TNF-a release from primary mouse macrophages exposed to PAM3 treated with either peptide SEQ ID No. 9 or a control peptide. […] This method had been previously described (Lerner et al. 2011, Heparanase powers a chronic inflammatory circuit that promotes colitis-associated tumorigenesis in mice. J Clin Invest. 121(5): 1709-1721).

[1] = system: primary mouse macrophages (expressing TLR4, MD2 and CD14); experiment: TNF-a release from primary mouse macrophages exposed to LPS; conditions: FIG. 7
From the text: as §1

[2] = system: TLR4 with MD2 or CD14 co-receptor; experiment: Reporter gene (SEAP) PAMP assay in NIH3T3 cells expressing TLR4 with MD2 or CD14 co-receptor; conditions: summary of FIGS. 6A-6V
From the text: FIGS. 6A-6V show the dose response inhibitor/activator effects of the designed peptides using a reporter gene assay. The reporter gene assay is composed of NIH3T3 cells transfected with either MD2 or CD14 along with TLR4 and the NF-κB-inducible reporter gene Secreted Alkaline Phosphatase (SEAP) to monitor TLR4 activation (Burger-[…] al. 2010, A new cell-based innate immune receptor assay for the examination of receptor activity, ligand specificity, signaling pathways and the detection of pyrogens. […] The receptors are coupled to for the detection of inhibitory activity, cells were treated with the peptide prior to exposure to LPS and the response to LPS is measured at variable peptide doses (as labeled). The detection of cell activation was performed using the peptide alone, at variable doses, as indicated in the respective graphs. The following presents in more details the experimental procedures. Experimental setup: The cell-based Assay is performed with different NIH3T3 reporter cell lines (NIH 3T3 PRR SEAP-TLR4/CD14 or -TLR4/MD2) and the control cell line NIH 3T3 SEAP. The NIH3T3 SEAP cell line is used in order to determine the background of the alkaline phosphatase expression. It is a cell line stably transfected with only the reporter gene plasmid. For each assay a vial of the master cell bank is revitalized and seeded in a standard cell culture flask (75 cm^2 T-Flask) at day one. Cells are cultured in 20 ml culture media (DMEM supplemented with 10% FCS (heat inactivated), 50 units/ ml penicillin, 0.05 mg/ ml streptomycin and 2 mmol/ L L-glutamine). The cells are cultured at 37° C. in a 5% CO2 humidified atmosphere. At Day 1: For the PAMP Assay cells are seeded in a 96-well plate at a density of 0.3.10^5 cells/well in a final volume of 100 μl culture media (DMEM, 10% FCS (heat inactivated)). To ensure equal culture conditions the 96-well cell culture plates are placed side by side and cultivated in a humidified CO2 incubator (37° C. and 5% CO2). […] After a cultivation period of 24 h the media is removed and replaced with the respective volume of fresh media (DMEM, 0.5% FCS (heat inactivated)).The lyophilized peptides are stored in a freezer at -20° C. upon arrival. For the experiments they are dissolved in DMSO (to the highest possible concentration). Before opening the peptides are allowed to equilibrate to room temperature (in order to reduce the uptake of moisture). For each experiment the stock solution is diluted in DMEM to the appropriate working concentration. […] Sonication was also used to help dissolve the peptides. Immediately after replacing the media, the diluted peptides are applied in a serial dilution to the cells and directly after that the agonist is added to the cells. After adding peptide and […] the final volume in each well of a 96 well plate amounts 100 μl/well. The culture medium containing 0.5% FCS is used as a negative reference item. The induction is performed for 18 h at 37° C. and 5% CO2. At Day 3: To determine the final SEAP value, 50 μl of the supernatant is carefully transferred in a new 96-well plate (Greiner-F-plate) and 50 μl of the substrate (pNPP; p-nitrophenyl phosphate) is added. SEAP catalyzes the hydrolysis of pNPP to the final product para-nitrophenol (yellow) which can be detected by a photometric analysis using an UV-VIS reader at 405 nm. […] The results of FIGS. 6A-6V with respect to peptide activity are summarized in Table 1 above with respect to the type of effect of the respective peptide (activation/inhibition) and with respect to the corresponding co-receptor (MD2/CD14). Data concerning SEQ ID No. 22 with respect to co-receptor CD14 is in preparation.

T1 sequence (Q9EPQ1 26-795): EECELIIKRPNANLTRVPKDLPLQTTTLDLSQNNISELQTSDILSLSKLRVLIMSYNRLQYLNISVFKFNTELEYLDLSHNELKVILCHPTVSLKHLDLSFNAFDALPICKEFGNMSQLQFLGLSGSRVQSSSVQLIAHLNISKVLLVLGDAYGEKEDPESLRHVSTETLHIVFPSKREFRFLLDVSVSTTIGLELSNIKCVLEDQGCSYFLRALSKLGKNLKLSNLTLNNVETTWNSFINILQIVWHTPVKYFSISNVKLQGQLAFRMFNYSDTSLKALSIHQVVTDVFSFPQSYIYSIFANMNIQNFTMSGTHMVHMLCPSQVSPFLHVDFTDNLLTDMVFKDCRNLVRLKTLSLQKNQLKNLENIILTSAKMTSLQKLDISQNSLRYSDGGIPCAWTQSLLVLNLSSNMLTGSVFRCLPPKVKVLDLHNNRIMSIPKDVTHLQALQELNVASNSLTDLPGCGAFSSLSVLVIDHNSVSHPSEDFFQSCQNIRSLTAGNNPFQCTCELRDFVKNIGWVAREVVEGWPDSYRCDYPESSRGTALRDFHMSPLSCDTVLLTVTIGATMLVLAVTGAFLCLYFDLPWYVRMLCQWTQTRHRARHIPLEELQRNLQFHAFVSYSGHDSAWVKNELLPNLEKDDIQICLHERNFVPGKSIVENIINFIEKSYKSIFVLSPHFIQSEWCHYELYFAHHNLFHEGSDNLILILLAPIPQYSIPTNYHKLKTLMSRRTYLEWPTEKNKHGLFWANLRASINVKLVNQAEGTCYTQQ
T1 sequence (Q9QUN7 25-784): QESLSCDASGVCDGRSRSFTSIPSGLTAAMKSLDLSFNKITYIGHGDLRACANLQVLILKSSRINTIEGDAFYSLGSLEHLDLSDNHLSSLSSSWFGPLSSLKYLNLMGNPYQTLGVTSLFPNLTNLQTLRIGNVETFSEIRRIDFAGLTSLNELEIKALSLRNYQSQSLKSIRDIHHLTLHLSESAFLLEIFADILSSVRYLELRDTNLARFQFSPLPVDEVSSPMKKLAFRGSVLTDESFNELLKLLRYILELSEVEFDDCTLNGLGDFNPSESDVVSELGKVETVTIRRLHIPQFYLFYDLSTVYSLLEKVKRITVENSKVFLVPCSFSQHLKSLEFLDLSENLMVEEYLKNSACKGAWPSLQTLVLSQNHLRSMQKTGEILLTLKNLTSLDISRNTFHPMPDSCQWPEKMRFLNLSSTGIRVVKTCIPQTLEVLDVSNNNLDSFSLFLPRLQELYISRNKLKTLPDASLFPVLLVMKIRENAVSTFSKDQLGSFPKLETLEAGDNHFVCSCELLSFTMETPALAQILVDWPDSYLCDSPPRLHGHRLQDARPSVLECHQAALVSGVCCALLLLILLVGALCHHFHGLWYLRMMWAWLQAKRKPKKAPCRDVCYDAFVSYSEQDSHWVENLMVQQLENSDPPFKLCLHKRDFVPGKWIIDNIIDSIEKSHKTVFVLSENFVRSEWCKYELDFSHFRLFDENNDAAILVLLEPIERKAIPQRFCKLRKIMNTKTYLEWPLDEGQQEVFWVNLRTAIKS

- effect on PAM3 induced TNF-a release (TLR1/2): no significant effect
Sequence: ILFMGMKWL (Inhibitor) [SEQ ID No. 9]
- effect on LPS-induced TNF-a release [1]: inhibitory effect
- Co-Receptor/s ([2]; co-receptor (MD2/CD14) via which the effect occurs): MD2
- Activity ([2]; type of effect (activation/inhibition) on TLR4): Inhibitor
